Experimental data taken from patent publication US8048908B2, “11β-hydroxysteroid dehydrogenase type 1 active compounds” (High Point Pharmaceuticals, LLC, priority 2006, dated 2011).
pIC50: −log10 of the molar value.

What was measured:
h-11βHSD1 = target: T1, h-11βHSD1 (Homo sapiens, UniProt P28845); assay: 11βHSD1 Enzyme Assay (scintillation proximity assay); type: biochemical; conditions: yeast extract expressing h-11βHSD1, 120 nM 3H-cortisone, 4 mM β-NADPH, 60 min at 30° C.
T1 construct: made in house
Method: ^3H-cortisone and anti-rabbit Ig coated scintillation proximity assay (SPA) beads were purchased from Amersham Pharmacia Biotech, —NADPH was from Sigma and rabbit anti-cortisol antibodies were from Fitzgerald. An extract of yeast transformed with h-11βHSD1 (Hult et al., FEBS Lett., 441, 25 (1998)) was used as the source of enzyme. The test compounds were dissolved in DMSO (10 mM). All dilutions were performed in a buffer containing 50 mM TRIS-HCl (Sigma Chemical Co), 4 mM EDTA (Sigma Chemical Co), 0.1% BSA (Sigma Chemical Co), 0.01% Tween-20 (Sigma Chemical Co) and 0.005% bacitracin (Novo Nordisk A/S), pH=7.4. Optiplate 96 wells plates were supplied by Packard. The amount of ^3H-cortisol bound to the SPA beads was measured on Top-Count NXT, Packard.
h-11βHSD1, 120 nM ^3H-cortisone, 4 mM β-NADPH, antibody (1:200), serial dilutions of test compound and SPA particles (2 mg/well) were added to the wells. The reaction was initiated by mixing the different components and was allowed to proceed under shaking for 60 min at 30° C. The reaction was stopped be the addition of 10 fold excess of a stopping buffer containing 500 μM carbenoxolone and 1 μM cortisone. Data was analysed using GraphPad Prism software.

11βHSD1 = target: T2, 11βHSD1 (Homo sapiens, UniProt P28845); conditions: lean healthy volunteers and people with type 2 diabetes; cited from earlier work
T2 construct: host or cells: human subjects (in vivo)
T2 sequence (P28845 whole entry): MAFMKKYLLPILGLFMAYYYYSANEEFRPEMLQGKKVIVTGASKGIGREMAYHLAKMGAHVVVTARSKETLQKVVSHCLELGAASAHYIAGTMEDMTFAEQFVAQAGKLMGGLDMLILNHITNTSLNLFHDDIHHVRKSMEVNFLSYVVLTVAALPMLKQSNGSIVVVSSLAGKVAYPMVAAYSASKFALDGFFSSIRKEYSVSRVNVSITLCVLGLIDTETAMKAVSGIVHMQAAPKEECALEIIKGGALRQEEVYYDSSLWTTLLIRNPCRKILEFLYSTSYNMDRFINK

T1 sequence (P28845 whole entry): as above

Row | Compound | pIC50 (h-11βHSD1) | insulin sensitivity (11βHSD1)
1 | CC1(C)CC2CC(C)(CN2C(=O)c2ccc(N3CCC(C(=O)NC4CCC(O)CC4)C3)cc2)C1 (stereo not shown) [Example 1-7, 1-[4-(1,3,3-Trimethyl-6-aza-bicyclo[3.2.1]octane-6-carbonyl)-phenyl]-pyrrolidine-3-carboxylic acid (4-hydroxy-cyclohexyl)-amide] | 6.90 | 
2 | CN(C(=O)C1CC1)C1CCN(c2ccc(C(=O)N3CC4CCC(CC4)C3)cc2)C1 (stereo not shown) [Example 1-31, Cyclopropanecarboxylic acid {1-[4-(3-aza-bicyclo[3.2.2]-nonane-3-carbonyl)-phenyl]-pyrrolidin-3-yl}-methyl-amide] | 6.89 | 
3 | CN(C1CCN(c2ccc(C(=O)N3CC4CCC(CC4)C3)cc2)C1)S(=O)(=O)Cc1ccccc1 (stereo not shown) [Example 1-33, N-{1-[4-(3-Aza-bicyclo[3.2.2]-nonane-3-carbonyl)-phenyl]-pyrrolidin-3-yl}-N-methyl-phenyl-methanesulfonamide] | 7.37 | 
4 | CC1(C)[C@@H](OC(=O)CCC(=O)O)CC[C@]2(C)[C@H]3C(=O)C=C4[C@@H]5C[C@@](C)(C(=O)O)CC[C@]5(C)CC[C@@]4(C)[C@]3(C)CC[C@@H]12 [carbenoxolone] |  | improves insulin sensitivity
